In the NIST ThermoML archive (doi:10.1021/acs.jced.8b00780) one finds Normal melting temperature data, which are given here for one molecule.

Each structure is given as a SMILES string. ± gives the expanded uncertainty stated by the source.

For this data set the following is noted: Crystal; DTA.

As for `C=C1C[C@@]23CC[C@H]4[C@@](C)(CCC[C@@]4(C)C(=O)O[C@@H]4O[C@H](CO)[C@@H](O)[C@H](O)[C@H]4O)[C@@H]2CC[C@]1(O[C@@H]1O[C@H](CO)[C@@H](O)[C@H](O[C@@H]2O[C@H](CO)[C@@H](O)[C@H](O)[C@H]2O)[C@H]1O[C@@H]1O[C@H](CO)[C@@H](O)[C@H](O)[C@H]1O)C3` [rebaudioside A], the Normal melting temperature stood at 231.98 ± 1.1 °C.
